The subject of series [1] is Oleum Crotonis-ear-oedema. The series is described as follows: Oleum Crotonis-ear-oedema model, ear weight. The note with it: 250 μg topically on the ear, mice, 6 hours. In kind it is in vivo. The protocol:
(§1) The anti-phlogistic effects of hypericum extract according to the invention, also those of isolated ingredients, were tested in the Oleum Crotonis-ear-oedema model on male NRMI mice. After inducing a narcosis by the intra-peritonal injection of 60 mg/kg sodium-pento-barbital, the test substances were applied to the right ear in 10 μl acetone, whereas the left ear was treated with 10 μl acetone alone, as a control. 30 mins later, a local inflammation was triggered at the left ear by applying 50 μg Oleum Crotonis in 10 μl acetone. After 6 hours, the animals were sacrificed and inhibition of the inflammation reaction was quantified by weighing a sample of tissue drawn from both ears, using the following formula: [1−(GT/GL]×100; in the case of GT or GL, this deals with the difference in weight between the right and left ears of animals that have been treated with the test substance (GT), or only with the solvent (GL).
(§2) The results of the investigations after applying 250 μg of the test substance or 1000 μg of the extract according to the invention to the left ear in each case are summarised in the following table.

Series [2] deals with human keratinocytes (HaCaT cells). In words: Proliferation of human keratinocytes, 3H methyl-thymidine incorporation. Particulars: for inhibition at 10 µg/mL: Homo sapiens, HaCaT, read-out: Inhibition (proliferation of HaCaT cells). Format: cell-based. The protocol:
The effects of the extracts according to the invention and various ingredients on the proliferation of human keratinocytes were obtained by using the HaCaT cell-line. The cells (10,000–15,000) were disseminated in 200 μl DMEM with 5% foetal calf serum in 96-well F-form micro-titre dishes and incubated at 37° C. at absence of test substances in an incubator. Cell proliferation was determined by measuring the incorporation of ^3H methyl-thymidine (0.5 μCi/well) over the last 6 hours in the culture.
On the technique in general: Dividing cells build labelled thymidine or BrdU into new DNA.

Series [3] has as its system myelo-peroxidase (MPO), neutrophile granulocyte accumulation. In words: Oleum Crotonis-ear-oedema model, myelo-peroxidase in ear homogenates. In kind it is in vivo. The note with it: 250 μg topically on the ear, mice, 6 hours. How it is done:
as §1
Inhibition of neutrophile granulocyte accumulations in inflamed tissue was obtained by determining myelo-peroxidase (MPO) in the ear homogenates. To this end, biopsy samples were recorded in 1 ml hexadecyl-trimethyl ammonium bromide (HTAB) buffers, homogenised with a glass homogeniser at 4° C. and then given ultrasound treatment for 10 seconds in a sonicator. After centrifuging at 4° C. with 3000 g for 10 mins, the supernatant was removed and retained for analysing at −70° C. Determining the MPO was performed in micro-titre dishes after adding H2O2 and the O-dianisidine-dihydrochloride indicator as a kinetic measure, over a period of 5 mins at 450 nm. Assessment was carried out against a standard curve with horseradish peroxidase, and was obtained as an mU enzyme activity per mg of tissue.
as §2

Series [4] has as its target T1, 5α reductase (Homo sapiens, UniProt P18405).
T1 construct: carried out on cells of the human prostate-cancer cell-line DU145; endogenous in cells; host or cells: DU145 (human prostate cancer cell line)
T1 sequence (P18405 1-259): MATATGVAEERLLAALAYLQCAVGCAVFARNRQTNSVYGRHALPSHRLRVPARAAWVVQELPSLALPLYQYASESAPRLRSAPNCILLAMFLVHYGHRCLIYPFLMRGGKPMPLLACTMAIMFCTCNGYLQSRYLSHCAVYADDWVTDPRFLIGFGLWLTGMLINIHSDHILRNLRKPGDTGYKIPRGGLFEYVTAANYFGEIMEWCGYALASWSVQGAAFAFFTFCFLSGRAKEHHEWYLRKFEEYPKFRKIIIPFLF
In words: Inhibition of 5α reductase in DU145 cells. In kind it is cell-based.

Series [5] deals with DU145 cells. Particulars: some 30 μg/ml.
Method: Investigations of 5a reductase inhibition were carried out on cells of the human prostate-cancer cell-line DU145. The cells (250,000) were disseminated in 5 ml of RPMI 1640 medium with 10% foetal calf serum (FCS) in 6-well cell-culture dishes and incubated at 37° C. in an incubator. After four days, the medium against RPMI 1640 was replaced, with the addition of 10% charcoal-stripped FCS. On the following day, the test substances and ^14C testosterone were applied and another 18 hours later, supernatant of the cells were removed. The supernatant of the cells were mixed with 2.5 ml ethyl acetate and then centrifuged for 10 mins with 500 g at room temperature. The organic phase was removed and transferred over to a small glass tube. Extraction was then repeated by again applying 2.5 ml ethyl acetate. The combined organic phases were evaporated down at 37° C. under N2 fumigation until dry; the residue was taken into 50 μl ethyl acetate and then separated out twice on a silica-gel 60 TLC dish, with ethyl acetate/cyclohexane (1:1) as mobile phase. The testosterone metabolites so formed were localised with the aid of a linear analyser, and inhibition of 5α reductase was obtained at the dihydro-testosterone peak by comparison with the solvent control.
Series [6] relates to Methicillin-resistant SA. Format: cell-based, Staphylococcus aureus. How it is done: (§3) Anti-microbial effects against various gram-positive bacteria were determined using the micro-dilution method. In the table below, we show the minimum inhibition concentration (MIC) and the minimum bactericide concentration (MBC) in each case.
In series [7] the test system is Listeria monocytogenes. The series is described as follows: MIC, micro-dilution method. In kind it is cell-based. The protocol: as §3
In general terms: Dilution methods test growth across graded concentrations, often in twofold steps.

In series [8] the test system is Enterococcus fæcium. In words: MIC, micro-dilution method. In kind it is cell-based. The protocol:
as §3

Series [9] concerns Streptococcus pyogenes. In words: MIC, micro-dilution method. Format: cell-based. The protocol:
as §3

In series [10] the test system is Enterococcus fæcalis. The series is described as follows: MIC, micro-dilution method. Format: cell-based. The protocol:
as §3

Series [11] concerns Staphylococcus saprophyticus. The series is described as follows: MIC, micro-dilution method. In kind it is cell-based. How it is done: as §3
The test system of series [12] is Staphylococcus aureus (SA). The series is described as follows: MIC, micro-dilution method. Format: cell-based. The protocol:
as §3

For series [13], the system named is Enterococcus durans. The series is described as follows: MIC, micro-dilution method. Format: cell-based. The protocol:
as §3

Series [14] has as its system verocells. The series is described as follows: Cyto-toxicity on verocells, MTT test. Format: cell-based, ape. The note with it: 7 days. The protocol: Various concentrations of the extract according to the invention and hypericin were incubated in the incubator for 7 days to assess the cyto-toxic effect of verocells. Determining of cyto-toxicity was performed using an MTT test following a published procedure (Cinatl J. jr; Cinatl, J; Rabenau, H, Gümel, H; Doerr, H. W; (1993); “In-vitro anti-human immuno-deficiency virus activity of 2′, 3 dideoxynucleotides and their effect on clonal growth of hæmopoietic cells from human bone-marrow”, Arzneimittel-Frsch./Drug Res. 43, 622–625).
Assessment of the cyto-toxic concentration (TC50) and the virus-inhibiting concentration (IC50) was performed using linear regression. To calculate the therapeutic index, the formula TC50/IC50 was applied.
For orientation: Tetrazolium dyes change colour on reduction, which living cells bring about.

For series [15], the system named is Herpes simplex 1 strain of virus (HSV-1). The series is described as follows: HSV-1 "deactivation test" (virus titre on verocells). Format: cell-based. The note with it: for virus titre: virus applied 1.5×10^7 TCID50.
Series [16] has the same test system. The series is described as follows: HSV-1 "inhibition test" (virostatic action in verocells). Format: cell-based. Particulars: Human alphaherpesvirus 1; HSV-1 3000 TCID50/ml, 48–72 hours.
Where [17] appears, read: DU-145, 30 μg/ml, DU145 cells, 18 hours, read-out: Inhibition of 5α reductase.
[18] abbreviates: DU-145, read-out: Inhibition of 5α reductase.

≈ marks a conversion by molar mass, not a printed value. Read-outs that look alike come from different tables or passages of the source.

As usually defined, the MIC is the least concentration at which growth counts as inhibited. Lower therefore signals greater potency. Broadly, the IC50 is the midpoint of a concentration-inhibition curve.

As to `O=c1c(O[C@@H]2O[C@H](CO)[C@H](O)[C@H](O)[C@H]2O)c(-c2ccc(O)c(O)c2)oc2cc(O)cc(O)c12` [Hyperoside], the Oedema inhibition in series [1] was −27%. In [2] (10 μg/ml), the inhibition at 10 µg/mL is -8%. This molecule also showed an MPO inhibition in series [3] of 39%. Further, the inhibition at 30 µg/mL in series [4] (setting [17]) is -1%.

As to `O=c1cc(-c2ccc(O)c(O)c2)oc2cc(O)cc(O)c12` [Luteolin], the Oedema inhibition in series [1] was determined as 70%. Besides, in series [2] (10 μg/ml), the inhibition at 10 µg/mL was found to be 92%. For the same molecule, the MPO inhibition in series [3] is listed as 91%. Besides, in series [4] (setting [17]), the inhibition at 30 µg/mL worked out at 42%.

As for `O=C(/C=C/c1ccc(O)c(O)c1)O[C@@H]1C[C@](O)(C(=O)O)C[C@@H](O)[C@H]1O` [Chlorogenic acid], the Oedema inhibition in series [1] was 14%. Also, the inhibition at 10 µg/mL in [2] (10 μg/ml) was -9%. Besides, the MPO inhibition in [3] was determined as 16%. Moreover, the inhibition at 30 µg/mL in series [4] (setting [17]) came to 3%.

As to `C[C@@H]1O[C@@H](OC[C@H]2O[C@@H](Oc3c(-c4ccc(O)c(O)c4)oc4cc(O)cc(O)c4c3=O)[C@H](O)[C@@H](O)[C@@H]2O)[C@H](O)[C@H](O)[C@H]1O` [Rutin], the Oedema inhibition in series [1] worked out at 38%. In addition, in series [2] (10 μg/ml), the inhibition at 10 µg/mL came to 9%. This molecule came in with an MPO inhibition in series [3] of 55%. Also, the inhibition at 30 µg/mL in series [4] (setting [17]) was -6%.

On to Camphor oil, for which the Oedema inhibition in series [1] is reported as 91%. Also, the “Inhibition (proliferation of HaCaT cells)” value in series [2] (10 μg/ml) came out at 44%. The same molecule displayed an MPO inhibition in series [3] of 96%. For the same molecule, the “Inhibition of 5α reductase” value in [4] (30 μg/ml, DU145 cells, 18 hours) is 12%.

`O=c1c(O)c(-c2ccc(O)c(O)c2)oc2cc(O)cc(O)c12` [Quercetin]: in [1], the Oedema inhibition is 82%. For the same molecule, the inhibition at 10 µg/mL in series [2] (10 μg/ml) is -29%. The molecule further yielded an MPO inhibition in series [3] of 97%. Also, the inhibition at 30 µg/mL in series [4] (setting [17]) came out at 46%.

Regarding `O=c1c(O[C@@H]2O[C@H](CO)[C@@H](O)[C@H](O)[C@H]2O)c(-c2ccc(O)c(O)c2)oc2cc(O)cc(O)c12` [Isoquercitrin], the Oedema inhibition in series [1] was −29%. The inhibition at 10 µg/mL in series [2] (10 μg/ml) was 83%. For the same molecule, the MPO inhibition in [3] worked out at 73%. In [4] (setting [17]), the inhibition at 30 µg/mL was -5%.

With `C[C@@H]1O[C@@H](Oc2c(-c3ccc(O)c(O)c3)oc3cc(O)cc(O)c3c2=O)[C@H](O)[C@H](O)[C@H]1O` [Quercitrin], the Oedema inhibition in [1] was −26%. Moreover, in [2], the inhibition at 10 µg/mL is 35%. In addition, in series [3], the MPO inhibition came out at 23%. In addition, the inhibition at 30 µg/mL in [4] (setting [18]) was -29%.

Turning to `Oc1ccccc1O` [Catechol], in series [1], the Oedema inhibition came to 36%. In addition, the inhibition at 10 µg/mL in [2] came to 14%. In addition, the MPO inhibition in series [3] amounted to 41%. Further, the inhibition at 30 µg/mL in [4] (setting [17]) is -15%.

Turning to `O=c1c(O)c(-c2cc(O)c(O)c(O)c2)oc2cc(O)cc(O)c12` [Myricetin], in [1], the Oedema inhibition came to 17%. The inhibition at 10 µg/mL in series [2] (10 μg/ml) came to 26%. In [3], this molecule showed an MPO inhibition of 75%. Further, the inhibition at 30 µg/mL in series [4] (setting [17]) was found to be 29%.

Turning to `CC(C)=CCC[C@]1(C)[C@@H](CC=C(C)C)C[C@@]2(CC=C(C)C)C(=O)[C@]1(C(=O)C(C)C)C(=O)C(CC=C(C)C)=C2O` [Hyperforin], the cyto-toxicity entry in [5] is reported as “cyto-toxic”. In addition, the Oedema inhibition in series [1] turned out to be 65%. Moreover, the MIC in series [6] is 31.25 µg/mL (≈ 58.2 µM); in series [7] it was 15.6 to 31.25 µg/mL; in series [8], 125 to 250 µg/mL; in [9], 15.6 µg/mL (≈ 29.1 µM); in series [10] it was 125 µg/mL (≈ 233 µM); in series [11] it was 62.5 to 125 µg/mL. Also, the results for the MIC in series [12] and in [13] were 62.5 µg/mL (≈ 116 µM) and 125 µg/mL (≈ 233 µM), respectively. In series [3], this molecule came in with an MPO inhibition of 62%.

For `Cc1cc(O)c2c(=O)c3c(O)cc(O)c4c5c(O)cc(O)c6c(=O)c7c(O)cc(C)c8c1c2c(c34)c(c78)c65` [Hypericin], the TC50 in series [14] is 74.3 µg/mL (≈ 147 µM). In addition, in [15] (10 μg/ml), the virus titre is listed as 4.7 × 10^6 TCID50. Besides, in series [15] (100 μg/ml), the virus-deactivating action entry is “approx. 4 log10 stages” and the virus titre is reported as 4.7 × 10^3 TCID50. Further, the Oedema inhibition in series [1] worked out at 6%. Further, the IC50 in series [16] was 2.2 µg/mL (≈ 4.36 µM). In series [2] (10 μg/ml), the inhibition at 10 µg/mL was 100%. The same molecule had an MPO inhibition in series [3] of 48%. Moreover, the inhibition at 30 µg/mL in [4] (setting [18]) is -24%.

As to `Oc1cc(O)c2c(c1)O[C@H](c1ccc(O)c(O)c1)[C@H](O)C2` [Epicatechol], the Oedema inhibition in series [1] is reported as 1%. For the same molecule, in series [2] (10 μg/ml), the inhibition at 10 µg/mL amounted to 13%. Besides, the MPO inhibition in [3] worked out at 45%. Further, the inhibition at 30 µg/mL in series [4] (setting [17]) was -6%.

Regarding `O=c1cc(-c2ccc(O)c(-c3c(O)cc(O)c4c(=O)cc(-c5ccc(O)cc5)oc34)c2)oc2cc(O)cc(O)c12` [Amento-flavone], in [1], the Oedema inhibition stood at 82%. Also, the inhibition at 10 µg/mL in series [2] (10 μg/ml) turned out to be 68%. This molecule also had an MPO inhibition in [3] of 70%. In [4] (setting [17]), the inhibition at 30 µg/mL is -15%.

Hyperforin Na: in series [2] (10 μg/ml), the “Inhibition (proliferation of HaCaT cells)” value was determined as 97%. In series [4] (5 μg/ml, DU145 cells, 18 hours), the “Inhibition of 5α reductase” value is 10%.

The values above are taken from US7166310B2, “Stable extract from Hypericum perforatum L., method for the production thereof and its use as a topical medicament” (Dr. Willmar Schwabe GmbH & Co., priority 2000, dated 2007).
